In patent US10874685B2, “Pancreatic cancer therapy and diagnosis” (Deutsches Krebsforschungszentrum Stiftung des Öffentlichen …, priority 2014, dated 2020):
“Also recorded” adds a separate entry of the source.

Key:
[1] = test system: Fibroblast (non-cancer cells); assay: Sulforhodamine B (SRB) cytotoxicity assay on fibroblasts; type: cell-based, human; conditions: increasing concentration, 72 h
Method: PANC-1, CFPAC-1, CAPAN-1, MIAPaCa-2, BXPC-3 and fibroblast cells were seeded for 24 h and were exposed to increasing concentration of Pimozide and vehicle for 72 h (FIG. 3A). The same procedure was followed for treatment of cancer cell lines with L741 (FIG. 3B). Cell viability was characterized using a SRB assay. Values are the mean+/−SD of six independent experiments.
Five pancreatic ductal cancer cell lines with various degree of differentiation were obtained from American Type Culture Collection (Rockville, USA) and Normal Human Dermal Fibroblasts (NHDF) obtained from PromoCell. BXPC-3 (moderately differentiated) as well as poorly differentiated human pancreatic cancer cell lines, PANC-1 and MIAPaCa-2, have been established from primary tumor. AsPC-1, CAPAN-1 and CFPAC-1 which represent well differentiated cell lines was isolated from ascites and liver metastasis of pancreas adenocarcinoma. All cell lines contain mutation in P53 whereas K-ras mutation reported in all with the exception of BxPc3. BRCA2 mutation just reported in CAPAN-1 cells.
Sulforhodamine B sodium salt (sigma) was used to assess cell viability and IC50 determination of pancreatic cancer cells. […] Cell viability was specified by using plate reader (TECAN) with measuring of absorbance at 570 and 650 nm (background) in treated or untreated 96 well plate.

MIAPaCa-2 cells = assay: Orthotopic pancreatic tumor mouse model treated with DRD2 antagonists; type: in vivo, mice; conditions: compared to vehicle
Method: Two million MIAPaCa-2 cells were resuspended in 10 μL Matrigel (BD Biosciences, San Jose, Calif.) were orthotopically implanted into the tail of the pancreas of 6-week-old Nod scid gamma animals (Jackson Labs, Bar Harbor, Me.) (day 1). When tumors were palpable (day 27), mice were randomized into 2 groups (n=7 in control group and n=9 in haloperidol group) and injected intraperitoneally with either haloperidol (10 mg/kg) or solvent (dimethylsulfoxide [DMSO] control group) for 12 days. The experiment was terminated when control mice appeared moribund. Weight of the animal and final tumor weight and volume were measured.

[2] = test system: MIAPaCa-2, PANC-1 and AsPC-1 cells; assay: Glucose uptake measurement (labelled 2-DG) in PDAC cell lines; type: cell-based, human; conditions: all three cell lines; relative to DMSO control
Source text: (§1) Measurement of 2-deoxy-D-glucose uptake shown on the y-axis relative to control by PDAC cell lines (MIAPaCa2, left; PANC-1, middle; AsPC1, right) treated with DMSO (C), pimozide (P) or haloperidol (H) (FIG. 10A). Abundance of free cholesterol, as measured by staining with filipin, after treatment with haloperidol (H) or pimozide (P) in PDAC cell lines (MIAPaCa2, left; PANC-1, middle; AsPC1, right) (FIG. 10B top). Representative micrographs of filipin-labelled cholesterol. PDAC (MIAPaCa2, top; PANC-1, middle; AsPC1, bottom) cells were seeded for 24 hours and treated with 10 μM haloperidol (H) or pimozide (P) or DMSO for 18 hours (FIG. 10B bottom). Red-fluorescence represents propidium iodide (PI)-stained nuclei and blue-fluorescence represents filipin-stained cholesterol. mRNA levels of genes relative to R-actin shown on the y-axis involved in cholesterol biosynthesis (from left to right: SREBP1, SREBP2, INSIG1, HMGCR, LDLR) measured by qRT-PCR 18 hours post-treatment with DMSO (C), haloperidol (H) or pimozide (P) in three PDAC cell lines (MIAPaCa2, top; PANC-1, middle; AsPC1, bottom) (FIG. 10C).
The induction effect of pimozide or haloperidol on labeled 2-DG uptake in cancer cells were determined from measurement of the fluorescence intensity of cell lysates. […]

[3] = test system: SREBP1, SREBP2, INSIG1, HMGCR, LDLR mRNA; assay: qRT-PCR of cholesterol biosynthesis genes in PDAC cell lines; type: cell-based, human; conditions: qRT-PCR 18 hours post-treatment; relative to actin
Source text: as §1
For mice xenograft tissue samples and cultured cells, the miRNeasy kit (Qiagen, Valencia, Calif.) was used to extract total RNA. […] Quantification values were calculated according to a standard curve method created from a dilution series. […]

[4] = test system: PANC-1, MIAPaCa-2 and AsPC-1 cell lines; assay: PDAC cell line growth curves under combination therapy; type: cell-based, human; conditions: over time
Source text: FIGS. 11A and 11B show PDAC cell line growth curves following combination therapy with DRD2 antagonists, 2-deoxy-D-glucose, and atorvastatin. Percentage cell growth shown on the y-axis following treatment with control (blue line), pimozide (Pim, gray line), atorvastatin and 2-deoxy-D-glucose (ATR+2-DG, red line) and combination of Pim and ATR+2-DG (green line) over time in PANC-1 (top), MIAPaCa-2 (middle) and AsPC-1 (bottom) cell lines (FIG. 11A). Haloperidol (Hal, gray line) is used as the DRD2 antagonist for use alone or in combination with ATR+2-DG as described in A (FIG. 11B). Dosage are indicated for each cell line.
PDAC cell proliferation was measured during pharmacological inhibition of DRD2 alone and in combination with blockade of glycolysis and cholesterol synthesis. To suppress glycolysis, 2-DG, a glucose analog which is a competitor inhibitor of glucose metabolism, was used. To inhibit cholesterol synthesis, atorvastatin (ATR), a competitive inhibitor of 3-hydroxy-3-methylglutaryl-coenzyme A (HMG-CoA) reductase in the cholesterol biosynthesis pathway was used.

MIAPaCa-2 xenograft = assay: Combination therapy in NSG mice, MIAPaCa-2 xenograft model; type: in vivo; conditions: i.p. 16 days; pimozide 10 mg/kg daily; gemcitabine 20 mg/kg every 4 days
Source text: Tumor volumes normalized to initial measurement shown in the y-axis every four days following treatment with either vehicle (gray line), the chemotherapeutic gemcitabine (green line), a combination therapy of 2-deoxy-D-glucose, atorvastatin and pimozide (2DG+ATR+Pim, redline), or a combination therapy of 2DG+ATR+Pim and gemcitabine (2DG+ATR+Pim+Gem, red dashed line) (FIG. 12A). […] Tumor weight (FIG. 12C) and volume of samples (FIG. 12D) harvested following treatment with, from left to right, control (Vehicle), 2DG+ATR, Pim alone, Pim+2DG+ATR, Gem alone, 2DG+ATR+Gem, Pim+Gem, or Pim+2DG+ATR+Gem.
NOD severe combined immunodeficiency gamma (NSG) mice were subcutaneously injected in the right flank with five million MIAPaCa-2 cells. Once tumors were detectable (200 mm^3), mice were randomized into 8 groups (5 in each group) and treated through intraperitoneal injection as indicated for 16 days. All drugs were given every day whereas gemcitabine was given every 4 days, alone or in combination. Experiment was terminated when control animals became moribund. The growth of tumors was measured every 4 days. Tumors were harvested and photographed. Tumor weights and volumes were measured.
The efficacy of the combined treatment approach was investigated using a MIAPaCa-2 xenograft model of pancreatic cancer.

Structure (SMILES): O=c1[nH]c2ccccc2n1C1CCN(CCCC(c2ccc(F)cc2)c2ccc(F)cc2)CC1 [pimozide]
- cell viability of fibroblasts versus cancer cells [1]: not as much to Fibroblast
- metastatic dissemination (MIAPaCa-2 cells): reduces tumor volume, metastasis
- tumor volume (MIAPaCa-2 cells; haloperidol 10 mg/kg intraperitoneally for 12 days): reduces tumor volume
- glucose uptake (intracellular labelled 2-deoxy-D-glucose) [2]: elevated uptake of glucose; also recorded: enhanced glucose and cholesterol uptake
- expression of genes involved in lipogenesis / cholesterol biosynthesis [3]: inducing expression of genes involved in lipogenesis
- cell growth [4]: reduced cell growth
- tumor volume (MIAPaCa-2 xenograft): reduced tumor weight and volume
- tumor weight (MIAPaCa-2 xenograft): reduced tumor weight
